“And” between values parts separate entries of the source, which are not always exact repeats. Equal entries are not always repeated.
How the values were obtained:
[1] = tested on: Rattus norvegicus; assay: Antiinflammatory activity in Wistar rat model of carrageenan-induced paw edema assessed as reduction in thickness of paw edema at 10 mg/kg, ip pretreated for 1 hr followed by carrageenan challenge and measured after 1 hr (reference value: 2.41 +/-0.05 mm); type: functional; details: time 1 hr after carrageenan
[2] = tested on: Rattus norvegicus; assay: Anti-inflammatory activity in Wistar rat assessed as inhibition of carrageenan-induced paw edema at 10 mg/kg, ip pretreated for 1 hr followed by carrageenan challenge and measured after 1 hr relative to control (reference value: 0.00 +/-0.02 %); type: functional; details: time 2 hrs
[3] = tested on: Rattus norvegicus; assay: Antiinflammatory activity in Wistar rat model of carrageenan-induced paw edema assessed as reduction in thickness of paw edema at 10 mg/kg, ip pretreated for 1 hr followed by carrageenan challenge and measured after 2 hrs (reference value: 2.06 +/-0.09 mm); type: functional; details: time 3 hrs
[4] = tested on: Rattus norvegicus; assay: Anti-inflammatory activity in Wistar rat assessed as inhibition of carrageenan-induced paw edema at 10 mg/kg, ip pretreated for 1 hr followed by carrageenan challenge and measured after 2 hr relative to control (reference value: 0.00 +/-0.03 %); type: functional; details: time 3 hrs
[5] = tested on: Rattus norvegicus; assay: Antiinflammatory activity in Wistar rat model of carrageenan-induced paw edema assessed as reduction in thickness of paw edema at 10 mg/kg, ip pretreated for 1 hr followed by carrageenan challenge and measured after 3 hrs (reference value: 1.79 +/-0.07 mm); type: functional; details: time 4 hrs
[6] = tested on: Rattus norvegicus; assay: Anti-inflammatory activity in Wistar rat assessed as inhibition of carrageenan-induced paw edema at 10 mg/kg, ip pretreated for 1 hr followed by carrageenan challenge and measured after 3 hr relative to control (reference value: 0.00 +/-0.1 %); type: functional; details: time 4 hrs
[7] = tested on: Rattus norvegicus; assay: Antiinflammatory activity in Wistar rat model of carrageenan-induced paw edema assessed as reduction in thickness of paw edema at 10 mg/kg, ip pretreated for 1 hr followed by carrageenan challenge and measured after 4 hrs (reference value: 1.40 +/-0.10 mm); type: functional; details: time 5 hrs
[8] = tested on: Rattus norvegicus; assay: Anti-inflammatory activity in Wistar rat assessed as inhibition of carrageenan-induced paw edema at 10 mg/kg, ip pretreated for 1 hr followed by carrageenan challenge and measured after 4 hr relative to control (reference value: 0.00 +/-0.4 %); type: functional; details: time 5 hrs
[9] = tested on: Rattus norvegicus; assay: Antiinflammatory activity in Wistar rat model of carrageenan-induced paw edema assessed as reduction in thickness of paw edema at 10 mg/kg, ip pretreated for 1 hr followed by carrageenan challenge and measured after 24 hrs (reference value: 0.83 +/-0.08 mm); type: functional; details: time 25 hrs
[10] = tested on: Rattus norvegicus; assay: Anti-inflammatory activity in Wistar rat assessed as inhibition of carrageenan-induced paw edema at 10 mg/kg, ip pretreated for 1 hr followed by carrageenan challenge and measured after 24 hr relative to control (reference value: 0.00 +/-0.3 %); type: functional; details: time 25 hrs
[11] = tested on: Rattus norvegicus; assay: Anti-inflammatory activity in Wistar rat assessed as inhibition of carrageenan-induced paw edema at 10 mg/kg, ip pretreated for 1 hr followed by carrageenan challenge and measured after 4 hr relative to indomethacin; type: functional; details: time 5 hrs
[12] = Ulcerogenic activity in fasted albino mouse assessed as incidence of gastric ulceration at 10 mg/kg, po for 3 days (reference value: 0 %); type: toxicity, organism-based; details: in vivo, 72 h, time 3 day
[13] = Ulcerogenic activity in fasted albino mouse assessed as average number of ulcers in gastric mucosa at 10 mg/kg, po for 3 days (reference value: 0); type: toxicity, organism-based; details: in vivo, 72 h, time 3 day
[14] = Ulcerogenic activity in fasted albino mouse assessed as average severity of ulcers in gastric mucosa at 10 mg/kg, po for 3 days (reference value: 0); type: toxicity, organism-based; details: in vivo, 72 h, time 3 day
[15] = Ulcerogenic activity in fasted albino mouse assessed as ulcer index in gastric mucosa at 10 mg/kg, po for 3 days (reference value: 0); type: toxicity, organism-based; details: in vivo, 72 h, time 3 day
[16] = tested on: Splenocyte; assay: Immunomodulatory activity in Swiss albino mouse splenocytes assessed as cell viability at 10 uM by measuring stimulation index incubated for 72 hrs in presence of mitogenic stimulus phytohaemagglutinin by MTT assay (reference value: 1.00 +/- 0.24); type: functional
[17] = tested on: Splenocyte; assay: Immunomodulatory activity in Swiss albino mouse splenocytes assessed as cell viability at 10 uM by measuring inhibition of stimulation index incubated for 72 hrs in presence of mitogenic stimulus phytohaemagglutinin by MTT assay relative to indomethacin; type: functional; details: read-out: Activity
[18] = tested on: Peritoneal macrophage; assay: Antiinflammatory activity in […] mouse Peritoneal macrophages assessed as reduction in LPS-induced NO production by measuring reduction in stimulation index at 10 uM preincubated for 1 hr followed by LPS stimulation measured after 24 hrs by Griess method (reference value: 27.31 +/- 2.56 uM); type: functional; details: time 25 hrs
[19] = tested on: Peritoneal macrophage; assay: Antiinflammatory activity in […] mouse Peritoneal macrophages assessed as inhibition of LPS-induced NO production at 10 uM preincubated for 1 hr followed by LPS stimulation measured after 24 hrs by Griess method relative to control (reference value: 0.0 %); type: functional; design: scale not given: the % may be the effect or the level left; details: time 25 hrs
[20] = tested on: Mus musculus; assay: Analgesic activity in albino mouse assessed reduction in acetic acid-induced abdominal writhing by measuring writing reflex at 10 mg/kg, ip pretreated for 1 hr followed by acetic acid challenge and measured starting 5 mins post acetic acid challenge for 10 mins (reference value: 42.4 +/- 1.02); type: functional; details: time 75 min, 1.25 h
[21] = tested on: Mus musculus; assay: Analgesic activity in albino mouse assessed protection against acetic acid-induced abdominal writhing at 10 mg/kg, ip pretreated for 1 hr followed by acetic acid challenge and measured starting 5 mins post acetic acid challenge for 10 mins relative to control (reference value: 0 %); type: functional; details: time 75 min, 1.25 h
[22] = tested on: Mus musculus; assay: Analgesic activity in albino mouse assessed protection against acetic acid-induced abdominal writhing at 10 mg/kg, ip pretreated for 1 hr followed by acetic acid challenge and measured starting 5 mins post acetic acid challenge for 10 mins relative to indomethacin; type: functional; details: time 75 min, 1.25 h
[23] = tested on: Mus musculus; assay: Analgesic activity in albino mouse assessed as forepaw licking/jumping latency time at 10 mg/kg, ip measured after 30 mins by hot plate test (reference value: 5.02 +/- 0.09 sec); type: functional; details: 0.5 h
[24] = tested on: Mus musculus; assay: Analgesic activity in albino mouse assessed as protection at 10 mg/kg, ip measured after 30 mins by hot plate test (reference value: 0 %); type: functional; details: 0.5 h
[25] = tested on: Mus musculus; assay: Analgesic activity in albino mouse assessed as forepaw licking/jumping latency time at 10 mg/kg, ip measured after 60 mins by hot plate test (reference value: 3.42 +/- 0.03 sec); type: functional; details: 1 h
[26] = tested on: Mus musculus; assay: Analgesic activity in albino mouse assessed as protection at 10 mg/kg, ip measured after 60 mins by hot plate test (reference value: 0 %); type: functional; details: 1 h
[27] = tested on: Mus musculus; assay: Analgesic activity in albino mouse assessed as forepaw licking/jumping latency time at 10 mg/kg, ip measured after 90 mins by hot plate test (reference value: 2.72 +/- 0.01 sec); type: functional; details: 1.5 h
[28] = tested on: Mus musculus; assay: Analgesic activity in albino mouse assessed as protection at 10 mg/kg, ip measured after 90 mins by hot plate test (reference value: 0 %); type: functional; details: 1.5 h
[29] = tested on: Mus musculus; assay: Analgesic activity in albino mouse assessed as forepaw licking/jumping latency time at 10 mg/kg, ip measured after 120 mins by hot plate test (reference value: 2.62 +/- 0.06 sec); type: functional; details: 2 h
[30] = tested on: Mus musculus; assay: Analgesic activity in albino mouse assessed as protection at 10 mg/kg, ip measured after 120 mins by hot plate test (reference value: 0 %); type: functional; details: 2 h
[31] = tested on: Mus musculus; assay: Analgesic activity in albino mouse assessed as protection at 10 mg/kg, ip measured after 120 mins by hot plate test relative to indomethacin; type: functional; details: 2 h
[32] = tested on: Staphylococcus aureus; assay: Antibacterial activity against Staphylococcus aureus ATCC 25923 incubated for 18 hrs by agar dilution method; type: functional
[33] = tested on: Streptococcus pyogenes; assay: Antibacterial activity against Streptococcus pyogenes ATCC 19615 incubated for 18 hrs by agar dilution method; type: functional
[34] = tested on: Salmonella typhimurium; assay: Antibacterial activity against Salmonella typhimurium ATCC 19430 incubated for 18 hrs by agar dilution assay; type: functional, Salmonella enterica subsp. enterica serovar Typhimurium; details: Salmonella enterica
[35] = tested on: Pseudomonas aeruginosa; assay: Antibacterial activity against Pseudomonas aeruginosa ATCC 27853 incubated for 18 hrs by agar dilution assay; type: functional
[36] = tested on: Candida albicans; assay: Antifungal activity against Candida albicans incubated for 18 to 24 hrs by CLSI method; type: functional; details: time 18-24 hrs
[37] = Toxicity in albino mouse assessed as induction of toxic symptoms at 50 to 100 mg/kg, ip measured after 24 hrs; type: organism-based; details: in vivo, dose 50-100 mg/kg

Row | Structure (SMILES) | Activity [1] [mm] | inhibition in vivo at 10 mg/kg [2] [%] | Activity [3] [mm] | inhibition in vivo at 10 mg/kg [4] [%] | Activity [5] [mm] | inhibition in vivo at 10 mg/kg [6] [%] | Activity [7] [mm] | inhibition in vivo at 10 mg/kg [8] [%] | Activity [9] [mm] | inhibition in vivo at 10 mg/kg [10] [%] | inhibition in vivo at 10 mg/kg [11] [%] | Activity [12] [%] | Activity [13] | Activity [14] | UI [15] | Activity_index [16] | viability at 10 µM [17] [%] | Activity [18] [µM] | Activity [19] [%] | Activity [20] | further results
1 | COc1cc(/C=C/C(=O)/C=C(O)/C=C/c2ccc(OC(=O)[C@H](CCSC)NC(=O)OCC3c4ccccc4-c4ccccc43)c(OC)c2)ccc1OC(=O)[C@H](CCSC)NC(=O)OCC1c2ccccc2-c2ccccc21 | 1.3 | 46 | 0.56 | 73 | 0.45 | 75 | 0.03 | 98 | 0.64 | 23 | 113 | 0 | 0 | 0 | 0 | 1.07 | 113 | 14.23 | 47.91 | 16.2 | Activity [21]: 61.8%; Activity [22]: 100.3%; Time [23]: 6.82 s; Activity [24]: 35.9%; Time [25]: 5.02 s; Activity [26]: 46.8%; Time [27]: 3.38 s; Activity [28]: 24.3%; Time [29]: 2.98 s; Activity [30]: 13.7%; Activity [31]: 32.6%; MIC [32]: 0.25 µg/mL and 0.233 µM; MIC [33]: 0.125 µg/mL and 0.116 µM; MIC [34]: 2 µg/mL and 1.86 µM; MIC [35]: 2 µg/mL and 1.86 µM; MIC [36]: 0.5 µg/mL and 0.465 µM; Activity [37]: Non-Toxic
2 | COc1cc(/C=C/C(=O)/C=C(O)/C=C/c2ccc(OC(=O)CNC(=O)OCC3c4ccccc4-c4ccccc43)c(OC)c2)ccc1OC(=O)CNC(=O)OCC1c2ccccc2-c2ccccc21 | 1.45 | 40 | 0.78 | 62 | 0.47 | 74 | 0.29 | 79 | 0.15 | 82 | 91 | 0 | 0 | 0 | 0 | 1.76 | 68.8 | 18.73 | 31.43 | 18 | Activity [21]: 57.5%; Activity [22]: 93.3%; Time [23]: 5.96 s; Activity [24]: 18.7%; Time [25]: 4.08 s; Activity [26]: 19.3%; Time [27]: 3.82 s; Activity [28]: 40.4%; Time [29]: 3.72 s; Activity [30]: 42%; Activity [31]: 100%; MIC [32]: 1 µg/mL and 1.08 µM; MIC [33]: 1 µg/mL and 1.08 µM; MIC [34]: 1 µg/mL and 1.08 µM; MIC [35]: 1 µg/mL and 1.08 µM; MIC [36]: 2 µg/mL and 2.16 µM; Activity [37]: Non-Toxic

Source: ChEMBL document CHEMBL4765295, “Synthesis, pharmacological profile and 2D-QSAR studies of curcumin-amino acid conjugates as potential drug candidates” (Eur J Med Chem, 2020)
